Key:
[1] = test system: mice; assay: Mouse testing: toxic side effects of MTX, liver examination; type: in vivo; conditions: after two weeks of treatment every other day
Procedure: (§1) The primary aspect is testing in mice for the ability to translate the toxic reducing action of the additive from flies into mice. Methotrexate was administered at a more moderate dose level, repeatedly over a long period of time. All additives tested for reducing the toxic side effects of MTX in mice were successful. That is 100% of the compounds identified in flies as toxic reducing compounds translated this activity into mice, for both chronic and acute applications. One of the signs of chronic liver damage by methotrexate is metabolic weight gain. The treatments were done on older juvenile mice (cohort of six). There weight gain was followed for two weeks with treatments given every other day.
At the end of the experiment, livers were examined.

[2] = Mouse testing: weight gain under repeated methotrexate; type: in vivo; conditions: older juvenile mice, cohort of six; for weight: treatments every other day
Procedure: as §1

[3] = test system: fruit flies; assay: Lethal dose (LD) curve in fruit flies; type: in vivo, Drosophila; conditions: chemical mixed into food and water, 50 wild-type embryos; range tested 0.01 mM to 5 mM
Procedure: The LD curve in fruit flies was generated for methotrexate. The data to generate the curve was obtained by: Mixing a specific concentration of chemical into the food and water supply of the fruit flies, then 50 wild-type embryos are added to the assay. The LD value for this concentration was calculated by 100−(2×(number of alive flies)). The LD curve was generated by repeating this method over a concentration range. For example, the concentration range tested for methotrexate was 0.01 mM to 5 mM. The LD 98 was identified for methotrexate was 0.5 mM. The LD98 was used as a stringent level for identifying additive chemicals that reduce the toxicity. This stringent level of toxicity is key for several reasons: 1) The high toxicity dose turns even mild toxic side effects into significant barriers for the flies to survive. At the LD98 concentration of methotrexate, all of the toxic mechanisms are orders of magnitude above that observed at physiological treatment doses. At the LD98 dose, suppressing any one toxicity side effect will not enable significant survival of the flies. An additive that enables significant survival is more likely able to reduce all toxic side effects of methotrexate.

[4] = test system: Ovarian cancer cell; assay: Human cancer cell assessment; type: cell-based
From the text: As a quick secondary screen, the additive alone and in combination with the target drug was examined in these human cancer cell lines. The results of TK-336 are shown as a specific example. The compound alone when treated over a wide concentration range had no effects against the cancer cells.

In the case of `CN(Cc1cnc2nc(N)nc(N)c2n1)c1ccc(C(=O)N[C@@H](CCC(=O)O)C(=O)O)cc1` [MTX], the “appearance of the livers at the end of the experiment” value [1] is reported as “smaller, yellow/orange in color and had almost no veins in the organ”, the “vein density in the liver” value [1] is reported as 5 % of the normal density and the weight ([2]; Day 0) is reported as 107. The weight ([2]; Day 7) was 107, the weight ([2]; Day 14) was 110 and the weight gain/week ([2]; over two weeks) was about 1 % weight gain/week. The LD98 [3] was 0.5 mM, the Cell survival ([4]; 15 μg/ml) was 50% and the Cell survival ([4]; 30 μg/ml) was 5%.

Source: US20080312201A1, “Reduced Toxicity Methotrexate Formulations and Methods for Using the Same” (priority 2004, published 2008)
